The structures appear in SMILES notation. Where two headings read alike, the source gives them in different places.

One assay deals with T1, FIH^WT (Homo sapiens, UniProt Q9NWT6).
T1 construct: pET28a vectors encoding for full-length FIH with an N-terminal His6 tag; His6 (N); host or cells: Escherichia coli BL21
As to the kind of experiment: Affinity-based fluorescence polarization (FP) assay with FIH WT, without and with 365 nm irradiation. As to conditions: read-out: Binding affinity to FIH^WT: Ki. The source says: We also performed a reported affinity-based fluorescence polarization (FP) assay (Figure S6) , under light activation to measure the binding affinity of NBA-ZG-2291 to FIH (Figure A). […] These observations are consistent with the intact protein MS analyzes. We also evaluated the binding affinities of two negative controls to FIH, which were designed not to covalently react with Lys106.
(§1) 4 (A) Light-induced click conjugation between NBA-ZG-2291 and FIH protein. (B) Light-induced binding affinity of NBA-ZG-2291 to FIH^ WT . (C) Light-induced binding affinity of NBA-ZG-2291 to FIH^ K106A . […] TEXT PRINTED IN THE PICTURE: (B) NBA-ZG-2291: Binding affinity to FIH^WT: Ki (nM): 414 ± 14 (Irradtion time (min): 0); Binding affinity to FIH^WT: Ki (nM): 74.1 ± 1.6 (Irradtion time (min): 15); Binding affinity to FIH^WT: Ki (nM): 46.7 ± 1.4 (Irradtion time (min): 30); Binding affinity to FIH^WT: Ki (nM): 33.2 ± 0.6 (Irradtion time (min): 60); Binding affinity to FIH^WT: Ki (nM): 30.2 ± 2.0 (Irradtion time (min): 90); Binding affinity to FIH^WT: Ki (nM): 32.1 ± 0.7 (Irradtion time (min): 120) | (B) Neg-1: Binding affinity to FIH^WT: Ki (nM): 423 ± 7 (Irradtion time (min): 0); Binding affinity to FIH^WT: Ki (nM): 408 ± 30 (Irradtion time (min): 15); Binding affinity to FIH^WT: Ki (nM): 459 ± 32 (Irradtion time (min): 30); Binding affinity to FIH^WT: Ki (nM): 427 ± 17 (Irradtion time (min): 60); Binding affinity to FIH^WT: Ki (nM): 396 ± 29 (Irradtion time (min): 90); Binding affinity to FIH^WT: Ki (nM): 428 ± 15 (Irradtion time (min): 120) | (B) Neg-2: Binding affinity to FIH^WT: Ki (nM): 742 ± 65 (Irradtion time (min): 0); Binding affinity to FIH^WT: Ki (nM): 799 ± 69 (Irradtion time (min): 15); Binding affinity to FIH^WT: Ki (nM): 758 ± 13 (Irradtion time (min): 30); Binding affinity to FIH^WT: Ki (nM): 744 ± 30 (Irradtion time (min): 60); Binding affinity to FIH^WT: Ki (nM): 788 ± 36 (Irradtion time (min): 90); Binding affinity to FIH^WT: Ki (nM): 786 ± 35 (Irradtion time (min): 120) | (C) NBA-ZG-2291: Binding affinity to FIH^K106A: Ki (nM): 442 ± 12 (Irradtion time (min): 0); Binding affinity to FIH^K106A: Ki (nM): 427 ± 22 (Irradtion time (min): 15); Binding affinity to FIH^K106A: Ki (nM): 426 ± 7 (Irradtion time (min): 30); Binding affinity to FIH^K106A: Ki (nM): 420 ± 11 (Irradtion time (min): 60); Binding affinity to FIH^K106A: Ki (nM): 418 ± 5 (Irradtion time (min): 90); Binding affinity to FIH^K106A: Ki (nM): 424 ± 12 (Irradtion time (min): 120) | (C) Neg-1: Binding affinity to FIH^K106A: Ki (nM): 271 ± 14 (Irradtion time (min): 0); Binding affinity to FIH^K106A: Ki (nM): 275 ± 15 (Irradtion time (min): 15); Binding affinity to FIH^K106A: Ki (nM): 268 ± 25 (Irradtion time (min): 30); Binding affinity to FIH^K106A: Ki (nM): 266 ± 22 (Irradtion time (min): 60); Binding affinity to FIH^K106A: Ki (nM): 264 ± 41 (Irradtion time (min): 90); Binding affinity to FIH^K106A: Ki (nM): 270 ± 3 (Irradtion time (min): 120) | (C) Neg-2: Binding affinity to FIH^K106A: Ki (nM): 567 ± 37 (Irradtion time (min): 0); Binding affinity to FIH^K106A: Ki (nM): 548 ± 61 (Irradtion time (min): 15); Binding affinity to FIH^K106A: Ki (nM): 521 ± 50 (Irradtion time (min): 30); Binding affinity to FIH^K106A: Ki (nM): 627 ± 17 (Irradtion time (min): 60); Binding affinity to FIH^K106A: Ki (nM): 565 ± 10 (Irradtion time (min): 90); Binding affinity to FIH^K106A: Ki (nM): 552 ± 38 (Irradtion time (min): 120) […]
(§2) 3. Experimental procedures
3.1 Fluorescence polarization (FP) assays1 with FIHWT and FIHK106A pET28a vectors encoding for full-length FIH with an N-terminal His6 tag or for FIH (K106A) with an N-terminal His6 tag were purchased from Nanjing Zoonbio Biotechnology. Both the FIHWT and FIHK106A protein were expressed from the respective plasmid in Escherichia coli BL21 at 20 °C for 16 h. E. coli cells were lysed and the lysate were clarified by centrifugation. His6- […]
Background: Polarisation of emitted light reports the rotation of a fluorescent probe.

The target of another assay is T2, FIH^K106A (Homo sapiens, UniProt Q9NWT6, K106A).
T2 construct: encoding for full-length FIH with an N-terminal His6 tag or for FIH (K106A) with an N-terminal His6 tag; His6 (N); host or cells: Escherichia coli BL21
T2 sequence (Q9NWT6 whole entry K106A): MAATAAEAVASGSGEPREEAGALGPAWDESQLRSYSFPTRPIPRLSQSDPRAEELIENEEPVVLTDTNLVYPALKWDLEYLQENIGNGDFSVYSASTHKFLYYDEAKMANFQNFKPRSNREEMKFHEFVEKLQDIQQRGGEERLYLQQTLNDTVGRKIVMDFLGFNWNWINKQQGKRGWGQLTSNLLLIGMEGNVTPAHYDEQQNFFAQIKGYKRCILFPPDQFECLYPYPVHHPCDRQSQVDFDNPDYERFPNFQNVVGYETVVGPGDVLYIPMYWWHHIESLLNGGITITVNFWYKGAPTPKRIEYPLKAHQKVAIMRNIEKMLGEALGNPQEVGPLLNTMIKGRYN
As to the kind of experiment: Affinity-based fluorescence polarization (FP) assay with the FIH K106A variant, without and with irradiation. The assay is classed as binding. Conditions: read-out: Binding affinity to FIH^K106A: Ki.
Excerpt: as §1
To further verify the covalent binding between NBA-ZG-2291 and Lys106, the FIH^ K106A variant was produced and purified.
as §2
3.1 Fluorescence polarization (FP) assays1 with FIHWT and FIHK106A pET28a vectors encoding for full-length FIH with an N-terminal His6 tag or for FIH (K106A) with an N-terminal His6 tag were purchased from Nanjing Zoonbio Biotechnology. Both the FIHWT and FIHK106A protein were expressed from the respective plasmid in Escherichia coli BL21 at 20 °C for 16 h. E. coli cells were lysed and the lysate were clarified by centrifugation. His6-tagged FIHWT or FIHK106A was purified on a HisTrap affinity column (GE Healthcare) by elution with an imidazole gradient. The final purified proteins were stored in PBS buffer.
FP assays were carried out using 384 -well plates (#3575, Corning); the polarization signal was measured using a SPARK Multi-Mode Microplate Reader (Tecan). […]

T1 sequence (Q9NWT6 whole entry): as the sequence (Q9NWT6 whole entry K106A) above, with A106K counted along it

As to `O=C(O)CNC(=O)c1ncc(-c2cc(-c3cccc([N+](=O)[O-])c3)no2)cc1O` [Neg-1], the Ki (in general, a dissociation constant, usually derived from enzyme kinetics or from competition with a known ligand) came to 423 ± 7 nM at FIH^WT (irradiation time 0 min); 408 ± 30 nM at FIH^WT (irradiation time 15 min); 459 ± 32 nM at FIH^WT (irradiation time 30 min); 427 ± 17 nM at FIH^WT (irradiation time 60 min); 396 ± 29 nM at FIH^WT (irradiation time 90 min); 428 ± 15 nM on FIH^WT (irradiation time 120 min). Moreover, the Ki at FIH^K106A (irradiation time 0 min) worked out at 271 ± 14 nM; on FIH^K106A (irradiation time 15 min), 275 ± 15 nM; at FIH^K106A (irradiation time 30 min) it was 268 ± 25 nM; on FIH^K106A (irradiation time 60 min) it was 266 ± 22 nM; at FIH^K106A (irradiation time 90 min), 264 ± 41 nM; on FIH^K106A (irradiation time 120 min), 270 ± 3 nM.
Regarding `O=C(O)CNC(=O)c1ncc(-c2cc(-c3ccc(CO)cc3)no2)cc1O` [Neg-2], the Ki is 742 ± 65 nM on FIH^WT (irradiation time 0 min); 799 ± 69 nM at FIH^WT (irradiation time 15 min); 758 ± 13 nM at FIH^WT (irradiation time 30 min); 744 ± 30 nM at FIH^WT (irradiation time 60 min); 788 ± 36 nM on FIH^WT (irradiation time 90 min); 786 ± 35 nM on FIH^WT (irradiation time 120 min). Further, the inhibitory constant (Ki) was determined as 567 ± 37 nM on FIH^K106A (irradiation time 0 min); 548 ± 61 nM on FIH^K106A (irradiation time 15 min); 521 ± 50 nM at FIH^K106A (irradiation time 30 min); 627 ± 17 nM on FIH^K106A (irradiation time 60 min); 565 ± 10 nM on FIH^K106A (irradiation time 90 min); 552 ± 38 nM on FIH^K106A (irradiation time 120 min).

For the origin of these results see publication PMC12123601, “Light-Induced, Lysine-Targeting Irreversible Covalent Inhibition of the Human Oxygen Sensing Hydroxylase Factor Inhibiting HIF (FIH)” (Journal of the American Chemical Society, 2025).
